The target in assay [1] is T1, human α2c-AR (Homo sapiens, UniProt P18825).
T1 construct: expressed in transfected cells
T1 sequence (P18825 1-462): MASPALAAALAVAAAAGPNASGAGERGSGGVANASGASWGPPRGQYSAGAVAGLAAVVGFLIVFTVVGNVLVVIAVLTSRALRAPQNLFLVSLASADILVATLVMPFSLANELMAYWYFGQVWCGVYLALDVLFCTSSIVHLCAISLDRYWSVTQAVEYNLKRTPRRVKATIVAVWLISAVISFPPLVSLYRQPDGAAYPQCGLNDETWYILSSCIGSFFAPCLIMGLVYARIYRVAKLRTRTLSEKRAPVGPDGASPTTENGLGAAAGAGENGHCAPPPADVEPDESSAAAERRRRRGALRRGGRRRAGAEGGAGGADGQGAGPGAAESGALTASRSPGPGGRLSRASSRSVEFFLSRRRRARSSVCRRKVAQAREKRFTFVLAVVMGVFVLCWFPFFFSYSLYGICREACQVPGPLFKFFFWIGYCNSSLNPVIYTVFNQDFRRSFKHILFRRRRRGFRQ
Kind of assay: Reversal of medetomidine mediated inhibition of forskolin-induced cAMP (6 CRE-LUC reporter), CHO cells expressing α2c-AR. In kind it is cell-based. The method, then:
(§1) The changes in cAMP levels were assessed by luciferase activities using a 6 CRE-LUC reporter gene bioassay.

Assay [2] has as its target T2, human α1a-AR (Homo sapiens, UniProt P35348).
T2 construct: expressed in transfected cells; host or cells: HEK cells
T2 sequence (P35348 1-466): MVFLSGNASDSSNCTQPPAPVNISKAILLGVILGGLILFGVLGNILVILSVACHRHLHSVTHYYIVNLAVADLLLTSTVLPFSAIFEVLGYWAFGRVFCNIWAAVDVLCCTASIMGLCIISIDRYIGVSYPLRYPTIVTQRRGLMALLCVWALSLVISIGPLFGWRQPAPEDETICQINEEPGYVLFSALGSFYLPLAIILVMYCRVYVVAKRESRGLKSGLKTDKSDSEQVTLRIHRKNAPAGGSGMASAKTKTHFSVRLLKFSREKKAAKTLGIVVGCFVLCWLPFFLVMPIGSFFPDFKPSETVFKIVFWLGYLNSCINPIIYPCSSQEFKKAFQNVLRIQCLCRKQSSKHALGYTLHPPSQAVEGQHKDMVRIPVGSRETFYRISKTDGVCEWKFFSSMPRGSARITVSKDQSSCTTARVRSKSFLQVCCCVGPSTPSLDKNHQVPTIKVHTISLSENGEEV
As to the kind of experiment: [3H]prazosin equilibrium competition binding, human α1a-AR expressed in HEK cells.

Assay [3] concerns the target T3, human α2b-AR (Homo sapiens, UniProt P18089).
T3 construct: expressed in transfected cells
T3 sequence (P18089 1-450): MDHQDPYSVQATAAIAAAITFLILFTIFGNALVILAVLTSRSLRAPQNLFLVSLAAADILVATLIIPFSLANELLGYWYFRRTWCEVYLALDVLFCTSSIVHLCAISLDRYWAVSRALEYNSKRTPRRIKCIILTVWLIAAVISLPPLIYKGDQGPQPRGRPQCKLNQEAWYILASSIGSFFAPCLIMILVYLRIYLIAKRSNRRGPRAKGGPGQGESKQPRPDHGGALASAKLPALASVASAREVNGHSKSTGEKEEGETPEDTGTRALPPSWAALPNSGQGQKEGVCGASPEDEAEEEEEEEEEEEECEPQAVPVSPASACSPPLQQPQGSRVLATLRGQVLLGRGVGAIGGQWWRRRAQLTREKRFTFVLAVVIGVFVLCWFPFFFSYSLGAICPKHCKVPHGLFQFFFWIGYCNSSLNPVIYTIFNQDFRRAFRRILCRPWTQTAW
As to the kind of experiment: [3H]Rauwolscine equilibrium competition binding, human α2b-AR expressed in CHO cells.

In assay [4] the target is T4, human α1b-AR (Homo sapiens, UniProt P35368).
T4 construct: expressed in transfected cells; host or cells: HEK cells
T4 sequence (P35368 1-520): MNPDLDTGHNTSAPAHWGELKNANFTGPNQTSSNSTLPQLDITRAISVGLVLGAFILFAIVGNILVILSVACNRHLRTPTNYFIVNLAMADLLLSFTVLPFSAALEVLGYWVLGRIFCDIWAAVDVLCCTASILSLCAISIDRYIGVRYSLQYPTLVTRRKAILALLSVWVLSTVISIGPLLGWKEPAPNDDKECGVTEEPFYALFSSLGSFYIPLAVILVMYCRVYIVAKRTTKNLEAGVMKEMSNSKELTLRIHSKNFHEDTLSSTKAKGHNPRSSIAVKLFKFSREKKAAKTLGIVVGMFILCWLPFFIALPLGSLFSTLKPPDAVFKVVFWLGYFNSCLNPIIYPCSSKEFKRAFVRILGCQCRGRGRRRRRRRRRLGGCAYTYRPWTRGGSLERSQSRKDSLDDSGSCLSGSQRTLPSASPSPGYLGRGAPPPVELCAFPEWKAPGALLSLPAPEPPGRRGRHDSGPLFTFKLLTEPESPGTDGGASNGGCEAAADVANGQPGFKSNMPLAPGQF
As to the kind of experiment: [3H]prazosin equilibrium competition binding, human α1b-AR expressed in HEK cells.

The target of assay [5] is T5, human α2a-AR (Homo sapiens, UniProt P08913).
T5 construct: expressed in transfected cells
T5 sequence (P08913 1-465): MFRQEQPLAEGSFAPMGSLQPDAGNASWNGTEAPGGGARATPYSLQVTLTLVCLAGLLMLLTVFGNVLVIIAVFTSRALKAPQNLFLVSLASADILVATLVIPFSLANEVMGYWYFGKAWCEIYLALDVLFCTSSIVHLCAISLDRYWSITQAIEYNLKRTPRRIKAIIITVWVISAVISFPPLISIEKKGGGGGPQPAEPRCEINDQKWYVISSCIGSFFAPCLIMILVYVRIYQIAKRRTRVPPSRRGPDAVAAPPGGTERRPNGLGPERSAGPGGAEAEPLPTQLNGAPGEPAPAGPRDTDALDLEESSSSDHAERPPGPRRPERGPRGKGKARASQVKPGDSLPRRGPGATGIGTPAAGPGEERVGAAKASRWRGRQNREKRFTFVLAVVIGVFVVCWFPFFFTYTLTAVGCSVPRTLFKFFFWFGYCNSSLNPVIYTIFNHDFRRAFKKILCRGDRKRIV
Kind of assay: Reversal of medetomidine mediated inhibition of forskolin-induced cAMP (6 CRE-LUC reporter), CHO cells expressing α2a-AR. In kind it is cell-based. As to conditions: reversal of medetomidine (10 nM) effect on forskolin (5 μM) cAMP response; mean ± SEM of n=3-4; read-out: Effective Concentration-50 (nM ± SEM) α2a-AR. The method, then:
as §1

The target in assay [6] is T1, human α2c-AR. Kind of assay: [3H]Rauwolscine equilibrium competition binding, human α2c-AR expressed in CHO cells.
Assay [7] concerns the target T5, human α2a-AR. Kind of assay: [3H]Rauwolscine equilibrium competition binding, human α2a-AR expressed in CHO cells. As to conditions: human α2a-AR in CHO cells.
For assay [8], the target named is T6, human α1d-AR (Homo sapiens, UniProt P25100).
T6 construct: expressed in transfected cells; host or cells: HEK cells
T6 sequence (P25100 1-572): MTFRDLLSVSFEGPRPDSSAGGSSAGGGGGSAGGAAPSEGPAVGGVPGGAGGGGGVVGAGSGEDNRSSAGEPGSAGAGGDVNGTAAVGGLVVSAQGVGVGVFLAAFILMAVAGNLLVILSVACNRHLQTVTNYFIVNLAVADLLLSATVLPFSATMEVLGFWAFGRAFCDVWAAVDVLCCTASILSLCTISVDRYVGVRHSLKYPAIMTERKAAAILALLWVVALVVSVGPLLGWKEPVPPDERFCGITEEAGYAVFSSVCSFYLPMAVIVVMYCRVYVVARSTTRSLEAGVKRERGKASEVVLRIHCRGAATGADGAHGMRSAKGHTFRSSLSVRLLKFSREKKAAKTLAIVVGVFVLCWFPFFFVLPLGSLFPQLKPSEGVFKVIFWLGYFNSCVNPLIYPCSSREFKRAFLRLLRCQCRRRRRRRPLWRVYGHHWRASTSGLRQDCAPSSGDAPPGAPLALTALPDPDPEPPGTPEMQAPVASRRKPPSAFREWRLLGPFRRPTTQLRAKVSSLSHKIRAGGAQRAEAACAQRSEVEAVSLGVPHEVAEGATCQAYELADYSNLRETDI
As to the kind of experiment: [3H]prazosin equilibrium competition binding, human α1d-AR expressed in HEK cells.

Read-outs that look alike come from different tables or passages of the source. Bounds are passed on as bounds.

On to `O=C(NCCCNC(=O)[C@@H]1[C@H]2C[C@H]3c4[nH]c5ccccc5c4CCN3C[C@@H]2CC[C@@H]1O)[C@@H]1[C@H]2C[C@H]3c4[nH]c5ccccc5c4CCN3C[C@@H]2CC[C@@H]1O` [Compound 3b], for which the EC50 in assay [1] came to 15.8 ± 5.2 nM; in assay [5] it was 660 ± 210 nM. Also, the “more potent at inhibiting the action of medetomidine on α2c-AR versus α2a-AR” value in assay [1] (from Table 4) came out at 42 fold. In addition, the Ki in assay [2] was 17000 nM; in assay [3] (Table 2, mean ± SEM of n = 4-6, read-out: pKi α2b-AR (converted)), 2040 nM; in assay [3] ([3H]rauwolscine 2.54 nM, mean ± SEM of four to nine experiments, read-out: Ki = SEM (nM) α2b-AR), 990 ± 85.2 nM; in assay [4], 5750 nM; in assay [6], 5.75 nM; in assay [7] (Table 2, mean ± SEM of n = 4-6, read-out: pKi α2a-AR (converted)) it was 182 nM. Also, the Ki in assay [7] ([3H]rauwolscine 2.54 nM, mean ± SEM of four to nine experiments, read-out: Ki = SEM (nM) α2a-AR) was 52 ± 3.2 nM; in assay [8], 7760 nM. Also, the “pKi α2c-AR” value in assay [6] (Table 3, CHO cells, [3H]rauwolscine, mean ± SEM of n = 4-6) stood at 8.24 ± 0.07. Further, in assay [6] (from Table 3), the “binding affinity for α2c-AR greater than on the α1-AR subtypes” value is ≥ 1000 fold.

Source of the values: patent US6638943B2 (The University of Tennessee Research Foundation, priority 2001, dated 2003).
